Assay results: patent US7259004B1, “Endophytic streptomycetes from higher plants with biological activity” (Montana State University, priority 2002, dated 2007)

Test system: M. tuberculosis MDR-P (drug resistant)
Assay: microbe, parasite or virus in culture
Type: cell-based, Mycobacterium tuberculosis
Conditions: for IC50 M. tuberculosis MDR-P (drug resistant): 7H11 agar with 10% OADC

## munumbicin C
  IC50 M. tuberculosis MDR-P (drug resistant): >125 micrograms/ml

## CO[C@H]1/C=C/O[C@@]2(C)Oc3c(C)c(O)c4c(O)c(c(/C=N/N5CCN(C)CC5)c(O)c4c3C2=O)NC(=O)/C(C)=C\C=C\[C@H](C)[C@H](O)[C@@H](C)[C@@H](O)[C@@H](C)[C@H](OC(C)=O)[C@@H]1C [Rifampicin, reference compound]
Mycobacterium tuberculosis, read-out: IC50 M. tuberculosis MDR-P (drug resistant)
  IC50: > 150 µg/mL

## munumbicin B
  IC50 M. tuberculosis MDR-P (drug resistant): 10 micrograms/ml
